Data as given in patent publication US20260231914A1, “BRAIN-DERIVED NEUROTROPHIC FACTOR-NANO LUCIFERASE TRANSGENIC RODENTS AND METHODS OF USE THEREOF” (University of Florida Research Foundation, Incorporated, priority 2023, published 2026).
Entries after “also recorded” stand apart in the source; their conditions may differ. Structures can show the parent of a compound that is named as a salt.

Legend:
Bdnf gene expression = settings: cited from earlier work; for Bdnf gene expression: literature reports, no concentration given
BDNF-NLuc [1] = experiment: LOPAC library screening, NLuc activity in cultured Bdnf^NLuc/+ neurons (HTS); type: cell-based, mouse; settings: 24 hours; for hit status in repeat screening with 4 different plates of cultured neurons (FIG. 5D): different batch of neurons; for hit: NLuc activity in neurons increased to more than 3× standard deviations over the mean: LOPAC compounds 10 μM, DIV7 neurons, FIGS. 5A-5D
Procedure: We tested the scalability of the Bdnf^NLuc/+ phenotypic assay by screening the 1280-compound Library of Pharmacologically Active Compounds (LOPAC). We dissected out cortices and hippocampi of 8 Bdnf^NLuc/+ embryos at E18.5 from 2 timed pregnant mice, prepared a suspension of dissociated neurons (10,000 cells/80 μl), transferred 40 ml of the suspension into each of eight 50-ml Falcon centrifuge tubes, used the liquid handling device to plate cells from each aliquot of 40-ml cell suspension onto a 384-well plate (80 μl/well), and cultured neurons.
Using 2 sets of 4 plates each of DIV7 neuronal cultures, we removed 20 μl of medium from each well and then added each LOPAC compound in 20 μl of fresh medium to a well to reach a final concentration of 10 μM. LOPAC compounds (320) were added to wells in the middle 20 columns of each plate, while the first 2 and last 2 columns were used for vehicle controls and positive controls. After 24 hours of incubation, we inverted plates to dump culture medium and then measured NLuc activity in neurons. The NLuc activity in each well is normalized to the average of NLuc activities in 1280 compound-containing wells. […] Compounds that increased the NLuc activity to more than 3× standard deviations (3×SDs) over the mean were considered a hit, and in this case, there are 7 hits in the first set of plates (FIG. 5A) and 10 hits in the second set of plates (FIG. 5B), 7 of which are shared. When the average of duplicate assays for each compound is plotted, we identify the same hits from the second set of plates, with the exception of hit 8 (FIG. 5C). To test the repeatability of the assay in different batches of cultured neurons, we repeated the screening with 4 different plates of cultured neurons.
(§1) Compound treatment and LOPAC library screening. Compound treatment or library screening in primary cultures of Bdnf^NLuc/+ mouse neurons on day 7 in vitro (DIV7) was performed by replacing one-quarter of the culture medium with equal volume of compound-containing medium to yield the desired final concentration for each compound. For the library of pharmacologically active compounds (LOPAC, Millipore), compounds in the original source plates were first dosed using a pintool into 384-well plates containing feeding medium to create a secondary source plate with compounds at 40 μM using the Beckman Coulter's Biomek NXP automated liquid handler (Beckman). 1.6% DMSO and 40 μM (+)-Bay K8644 (Sigma) were added to the first two and the last two columns of the secondary source plate as vehicle and positive control, respectively. Compounds in the secondary source plates were then added to culture neurons in the 384-well plates using a Versette liquid handler. Neurons were treated with compounds for 24 hours in a humidified incubator set to 37° C. and 5% CO2. Luciferase activity was detected the next day using Nano-Glo Luciferase Assay System (Promega) according to the manufacturer's instruction. Luminescence intensity was measured using a microplate reader (FLUOstar Omega, BMG LABTECH) at 460 nm.

BDNF-NLuc [2] = experiment: NLuc activity (BDNF-NLuc levels) in cultured Bdnf^NLuc/+ neurons and media after compound treatment; type: cell-based, mouse
Procedure: We tested our assay for suitability for HTS by using two positive controls. […] The assay produces a good Z′ for both 10 mM KCl and 10 μM DM (FIGS. 4A-4C) (Zhang et al., 1999). To measure NLuc activities in cells, we can simply invert a plate to dump culture medium and then add the Promega Nano-Glo mix, whereas we must transfer a certain amount of culture medium to a new plate and then add the Promega Nano-Glo mix to measure NLuc activities in media.
Primary cortical/hippocampal cell culture and maintenance. Brains of E18.5 Bdnf^NLuc/+ embryos were collected and placed in ice-cold Ca^2+ and Mg^2+ free Hanks' balanced salt solution (HBSS) supplemented with Penicillin-Streptomycin (Pen/Strep, 50 U/mL, Gibco), 25 mM D-glucose, 1 mM pyruvate, and 20 mM HEPES. Cortices and hippocampi were isolated and digested with papain (~12 U/mL, Worthington) at 37° C. for 20 min. Brain tissues were washed with media containing Neurobasal (Gibco), 4% fetal bovine serum (FBS, HyClone), and Pen/Strep. The tissue was gently triturated and allowed to settle, and the supernatant was filtered through a 40 μm cell strainer. Cells were centrifuged at 420×g for 4 min and resuspended in plating media [Neurobasal, 2% FBS, 2% B27 (Gibco), 2 mM GlutaMAX (Gibco), and Pen/Strep]. 1.0×10^4 or 4.5×10^4 cells were plated onto white Greiner μClear 384-well plate (80 μl/well) or PDL-coated 96-well plate (200 μl/well), respectively. Sixteen hours after plating, 75% of the plating media was replaced by feeding media [Neurobasal, 2% B27, 2 mM GlutaMAX, and Pen/Strep] supplemented with 16 μM 5-fluoro-2′-deoxyuridine (FUdR) to prevent overgrowth of non-neuronal cells. Plating and media changes were performed using a Versette liquid handler (Thermo Fisher Scientific) or an 8-channel pipette for the 384-well and 96-well plates, respectively. Cells were maintained at 37° C. and 5% CO2 incubator.
as §1

[3] = test system: protein transport from the ER to the Golgi complex; settings: Helms and Rothman, 1992; cited from earlier work
Bdnf mRNA = experiment: qRT-PCR of Bdnf mRNA and Bdnf mRNA variants in DIV7 Bdnf^NLuc/+ neurons; type: cell-based, mouse; settings: 5 μM, 24 hours
Procedure: We treated DIV7 Bdnf^NLuc/+ neurons in a 24-well plate with 5 μM GR127935-HCl for 24 hours, isolated total RNA from cultured cells in each well, and ran quantitative RT-PCR (qRT-PCR) to determine levels of total Bdnf mRNA (coding), as well as four major Bdnf mRNA variants (exon 1, exon 2, exon 4, and exon 6).
qRT-PCR validation of HTS hit. DIV7 Bdnf^NLuc/+ neurons were treated in a 24-well plate with 5 μM GR127935-HCl for 24 hours, after which total RNA was isolated from cultured cells in each well and used to perform quantitative RT-PCR (qRT-PCR) to determine the levels of total Bdnf mRNA (coding), as well as four major Bdnf mRNA variants (exon 1, exon 2, exon 4, and exon 6). Levels of Bdnf mRNA variants were quantified using qRT-PCR with 18S rRNA as the internal control.

[4] = KCl 10 mM added DIV7, measured DIV8 (24 hours)
[5] = DM 2-10 μM added DIV7, measured DIV8, listed as DM

SMILES	Bdnf gene expression (Bdnf gene expression)	hit status in repeat screening with 4 different plates of cultured neurons (FIG. 5D) (BDNF-NLuc [1]; 10 μM)	hit: NLuc activity in neurons increased to more than 3× standard deviations over the mean (BDNF-NLuc [1])	also measured
COC(=O)C1=C(C)NC(C)=C([N+](=O)[O-])C1c1ccccc1C(F)(F)F (stereo not shown) [Bay K8644]	stimulates Bdnf gene expression	rediscovered	hits and above dotted line	BDNF levels (NLuc activity) (BDNF-NLuc [2]; Bay K8644 10 μM, DIV7, 24 hours, 3 batches of cultured neurons): increased BDNF levels
C#CCN1C(C)=C(C(=O)OC)C(c2cccc([N+](=O)[O-])c2)C(C(=O)OCC)=C1C (stereo not shown) [N-propargyl nitrendipine]	–	–	hits and above dotted line	–
CCC(C)N(C)C(=O)c1cc2ccccc2c(-c2ccccc2Cl)n1 (stereo not shown) [PK11195]	–	–	above dotted line	–
[Cl-].[K+] [KCl]	stimulates Bdnf gene expression	–	–	Bdnf gene expression in cultured neurons (Bdnf gene expression; KCl 50 mM for 90 min (Ghosh et al., 1994; Tao et al., 2002)): increases Bdnf gene expression; levels of BDNF-NLuc in media (NLuc activity) (BDNF-NLuc [2]; [4]): elevated; also recorded: increased; levels of BDNF-NLuc in neurons (NLuc activity) (BDNF-NLuc [2]; [4]): elevated; also recorded: increased
C[C@H]1CCC/C=C/[C@@H]2C[C@H](O)C[C@H]2[C@H](O)/C=C/C(=O)O1 [brefeldin A]	–	rediscovered	hits and above dotted line	protein transport from the ER to the Golgi complex [3]: inhibit protein transport from the ER to the Golgi complex
COc1ccc(NC(=O)c2ccc(-c3ccc(-c4noc(C)n4)cc3C)cc2)cc1N1CCN(C)CC1 [GR127935-HCl]	–	rediscovered	above dotted line	Bdnf mRNA variant exon 1 (Bdnf mRNA): stimulating transcription; Bdnf mRNA variant exon 2 (Bdnf mRNA): stimulating transcription; Bdnf mRNA variant exon 4 (Bdnf mRNA): stimulating transcription; total Bdnf mRNA (coding) levels (Bdnf mRNA; 18S rRNA internal control): elevated Bdnf mRNA levels; hit: NLuc activity in neurons increased to more than 3× standard deviations over the mean (BDNF-NLuc [1]; listed as GR127935 hydrochloride hydrate): hits
COc1ccc(-c2ccc(=N)n(CCCC(=O)O)n2)cc1 [gabazine]	–	–	above dotted line	hit status on the average of duplicate assays (FIG. 5C) (BDNF-NLuc [1]; 10 μM, average of 2 sets of plates): exception
CCCc1c(-c2ccc(O)cc2)nn(-c2ccc(O)cc2)c1-c1ccc(O)cc1 [1,3,5-Tris(4-hydroxyphenyl)-4-propyl-1H-pyrazole]	–	rediscovered	above dotted line	hit: NLuc activity in neurons increased to more than 3× standard deviations over the mean (BDNF-NLuc [1]; listed as PPT): hits
CC1(C)[C@H](C(=O)O[C@H](C#N)c2cccc(Oc3ccccc3)c2)[C@@H]1C=C(Br)Br [deltamethrin]	stimulate Bdnf gene expression	–	–	levels of BDNF-NLuc in media (NLuc activity) (BDNF-NLuc [2]; [5]): stimulated BDNF production; also recorded: increased; levels of BDNF-NLuc in neurons (NLuc activity) (BDNF-NLuc [2]; [5]): stimulated BDNF production; also recorded: increased
CCCCCCCCCCCCCC(=O)O[C@@H]1[C@@H](C)[C@@]2(O)[C@@H](C=C(CO)C[C@]3(O)C(=O)C(C)=C[C@@H]23)[C@@H]2C(C)(C)[C@]12OC(C)=O [phorbol-12-myristate 13-acetate]	–	just under the threshold	hits and above dotted line	effect on Bay K8644-induced Bdnf gene expression (Bdnf gene expression; Zafra et al., 1992): enhance the effect of Bay K8644 on Bdnf gene expression
